The source made the active and inactive calls.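 The calls were made as follows: active = fitted curve reaching 35% inhibition at a dose no higher than twice the top valid tested dose; inconclusive = flat fit with 30 to 70% inhibition, or a poor fit; inactive = the rest, including activity in the opposite direction.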
Experiment: suppressors of NR0B1-promoter luciferase reporter, dose response, EWS/Fli inhibitor project, luciferase luminescence, A673 cells, cherry-pick (AID 686920)
Conditions: A673 NR0B1-luciferase reporter, viability-normalised luminescence; at 68 µM (top of the series)

| SMILES | activity change, negative = inhibition |
| --- | --- |
| Cc1noc(C)c1NC(=O)Nc1ccc2c(c1)CC(=O)N([C@@H](C)CO)C[C@@H](C)[C@@H](CN(C)Cc1ccc(Cl)c(Cl)c1)O2 | -31.5% (inactive) |
| COc1ccccc1-c1cn(CC[C@H]2CC[C@@H](NC(=O)C3CCCC3)[C@@H](CO)O2)nn1 | -4.29% (inactive) |
| C/C=C/c1ccc(C2[C@@H]3CN(C(=O)Cc4ccccc4)C[C@H]2N3)cc1 (stereo partly drawn) | -8.33% (inactive) |
| Cc1noc(C)c1C(=O)Nc1sccc1C(N)=O | 20.7% (inactive) |
| COc1ccc(OC)c(-c2cc(C(F)(F)F)c3c(n2)sc2c(O)cc(=O)[nH]c23)c1 | 5.23% (inactive) |
| CCOc1ccc(NC(=O)C(=O)N/N=C\c2ccc(CNS(=O)(=O)c3ccccc3)o2)cc1 | -7.85% (inactive) |
| Cc1ccsc1C(=O)OCC(=O)NCCC1=CCCCC1 | 97.5% (inactive) |
| COC(=O)C[C@@H]1CC[C@@H]2[C@@H](COc3ccc(NC(=O)Cc4cccs4)cc3C(=O)N2C)O1 | -27.4% (inactive) |

— PubChem BioAssay AID686920 (Broad Institute, 2013)
